From EP1228058B1, “BENZOPYRANYL GUANIDINE DERIVATIVES, PROCESS FOR PREPARATION THEREOF, AND PHARMACEUTICAL COMPOSITIONS CONTAINING THEM” (Dongbu Hannong Chemical Co., Ltd., priority 1999, dated 2001)

Legend:
[1] = test system: rat brain homogenate; test: Inhibition of iron-induced lipid peroxidation (MDA quantification); assay type: biochemical; conditions: 100 uM; FeCl2 400 uM, 37 °C, 30 min
Description: The rat brain was homogenized in a Krebs buffer (15 mM HEPES, 10 mM glucose, 140 mM NaCl, 3.6 mM KCl, 1.5 mM CaCl2, 1.4 mM KH2PO4, 0.7 mM MgCl2, pH 7.4) and the supernatant separated by centrifugation at 12,000 rpm for 10 min. was used for further experiments. FeCl2 was added to a final concentration of 400 uM in the brain homogenate which was then allowed to stand at 37 °C for 30 min. for the facilitation of oxidation. Each of the test compounds was added at a concentration of 100 uM and vehicle was used as a control.
Iron facilitates the oxidation of the brain homogenate to produce malondialdehyde (MDA), a lipid peroxidation product. Thus, the lipid peroxidation was determined by MDA quantification. The inhibitory effect of the test compounds against the lipid peroxidation was evaluated by calculating MDA reduction rate of the test compounds compared with that of the control group.
Typically, the MDA quantification is achieved by reacting samples with 2-thiobarbituric acid (TBA) and measuring the absorbance at 530 nm. However, this method is unsuitable to treat samples on a large scale because of a boiling step. Thus, in this experiment, N-methyl-2-phenylindole was used instead of TBA. […] Bioxytech^R LPO-586 Kit was used for MDA quantification.

[2] = test system: RAW 264.7 cells; test: Inhibition of LPS-induced NO production (Griess reagent); assay type: cell-based, murine; conditions: Mus musculus, RAW264.7, 100 uM, 24 hours
Description: Using RPMI1640 media supplemented with 10% fetal bovine serum (FBS), RAW 264.7 cells (obtained from American Type Culture Collection), a murine macrophage cell line, were cultured at 37 °C in a 5% CO2 incubator. The RAW264.7 cells were harvested and cell density was adjusted to 5x10^5/ml with a RPMI medium supplemented with 0.5% FBS and plated at 5x10^4 cells/well to 96-well plates, which were then cultured for 20 hr in a CO2 incubator. After removal of the media, the cells were pre-treated for 1 hour with fresh media containing 33 uM and 100 uM of test compounds. The test compounds were dissolved in DMSO and diluted to respective concentration in the media. In order to minimize DMSO effect on the nitric oxide formation by the RAW264.7 cells in the wells, the media were allowed to contain DMSO at a concentration of 0.1 % or less.
After completion of one hour pre-treatment, lipopolysaccharide (LPS, E. coli serotype 055:B5) was added to activate the cells, which were, then, maintained for 24 hours in a CO2 incubator. As a result of the activation of RAW264.7 cells with LPS, NO was formed. The NO released into the media was in a form of nitrite NO2^- and quantitatively measured using the Griess reagent. A control was treated only with vehicle instead of test compounds.
The inhibitory effects of the test compounds against NO production were determined as the reduction of NO quantity compared with that of the control group.

[3] = test system: Rat aortic smooth muscle cells; test: Inhibition of proliferation of vascular smooth muscle cells ([3H]-thymidine incorporation into DNA); assay type: cell-based; conditions: [^3H]-thymidine into DNA; angiotensin II (10^-7M) stimulated = 100; 72 hr; 4320 min
Description: Inhibitory effects on cell proliferation was evaluated by measurement of incorporation of [^3H]-thymidine into DNA. Rat aortic smooth muscle cells were grown in 24 well plate for 3 days to near confluence in DMEM containing 10% FBS, then DMEM containing FBS was washed out. Cells were cultured again in DMEM without serum for 48 hr to be quiescent. […] During the last 4 hours of incubation, [^3H]-thymidine (1 uCi/ml) was added. […] The samples were filtered through glass microfiber filter (GF/B. Whatmann) under vacuum. After washing the filters 3 times with 2 ml of an aqueous solution of 5% TCA, the radioactivity incorporated into DNA was counted by Liquid Scintillation Counter (Packard, TRI-CARB, 2100TR), then calculated incorporation % of [^3H]-thymidine.

[4] = Acute oral toxicity test in rats; conditions: rat, in vivo, single oral dose in 0.5% methyl cellulose, read-out: lethal dose (LD50) for oral administration
Method in brief: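 Six-week-old SPF SD rats, two per group, received a single oral dose of 1 g/kg suspended in 0.5% methyl cellulose (10 ml/kg). Survivors at the end of observation underwent haematology, serum chemistry, necropsy and histopathology of vital organs with macroscopic lesions.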

COC(OC)[C@]1(C)Oc2ccc([N+](=O)[O-])cc2[C@@H](NC(=NC#N)Nc2cccc(C(F)(F)F)c2)[C@@H]1O [Example 7, (2R, 3S, 4R)-N''-cyano-N-(6-nitro-3,4-dihydro-3-hydroxy-2-methyl-2-dimethoxymethyl-2H-benzopyran-4-yl)-N'-(3-trifluoromethylphenyl)guanidine]
% Inhibition [1]: 70%
inhibition at 100 µM [2]: 88%
Incorporation % [3]: 37.8%
LD50 [4]: > 1000 mg/kg
